For orientation: pIC50 means the negative decadic logarithm of the IC50, by convention in mol/L. Low values mean a high IC50, high ones a low IC50. Usually pEC50 stands for the EC50 on a negative log10 scale, so that one unit is a factor of ten. The low end stands for a large EC50, the high end for a small EC50. Usually pKi stands for −log10 of the Ki, conventionally taken in molar units. Low readings indicate a large Ki, high ones a small Ki. As usually defined, the MIC is the lowest concentration found to suppress growth. Broadly, the EC50 is the concentration giving half of the maximal effect. High values mean a need for much substance, low ones an effect from little substance.

Assay [1] addresses C-C chemokine receptor type 4 (Homo sapiens, UniProt P51679). Put plainly: Antagonist activity at CCR4. The class given is functional.
For assay [2], the system named is Mycobacterium tuberculosis. Put plainly: Growth inhibition of Mycobacterium tuberculosis H37Rv at 6.25 ug/ml. It is filed as functional. The settings on record: read-out: GI.
The nature of assay [3]: Inhibition of HIV reverse transcriptase. Details: species or system Human immunodeficiency virus.
For assay [4], the system named is Escherichia coli. Briefly: Antibacterial activity against Escherichia coli. The class given is functional.
For assay [5], the system named is Salmonella typhimurium. Put plainly: Antibacterial activity against Salmonella typhimurium. It is filed as functional, Salmonella enterica subsp. enterica serovar Typhimurium.
Assay [6] deals with Bacillus subtilis. Put plainly: Antibacterial activity against Bacillus subtilis. The class given is functional.
The test system of assay [7] is Rattus norvegicus. Briefly: Antiinflammatory activity in rat assessed as inhibition of carageenaan-induced paw edema relative to control. It is filed as functional.
For assay [8], the target named is T1, Follicle-stimulating hormone receptor (Homo sapiens, UniProt P23945).
T1 sequence (P23945 whole entry): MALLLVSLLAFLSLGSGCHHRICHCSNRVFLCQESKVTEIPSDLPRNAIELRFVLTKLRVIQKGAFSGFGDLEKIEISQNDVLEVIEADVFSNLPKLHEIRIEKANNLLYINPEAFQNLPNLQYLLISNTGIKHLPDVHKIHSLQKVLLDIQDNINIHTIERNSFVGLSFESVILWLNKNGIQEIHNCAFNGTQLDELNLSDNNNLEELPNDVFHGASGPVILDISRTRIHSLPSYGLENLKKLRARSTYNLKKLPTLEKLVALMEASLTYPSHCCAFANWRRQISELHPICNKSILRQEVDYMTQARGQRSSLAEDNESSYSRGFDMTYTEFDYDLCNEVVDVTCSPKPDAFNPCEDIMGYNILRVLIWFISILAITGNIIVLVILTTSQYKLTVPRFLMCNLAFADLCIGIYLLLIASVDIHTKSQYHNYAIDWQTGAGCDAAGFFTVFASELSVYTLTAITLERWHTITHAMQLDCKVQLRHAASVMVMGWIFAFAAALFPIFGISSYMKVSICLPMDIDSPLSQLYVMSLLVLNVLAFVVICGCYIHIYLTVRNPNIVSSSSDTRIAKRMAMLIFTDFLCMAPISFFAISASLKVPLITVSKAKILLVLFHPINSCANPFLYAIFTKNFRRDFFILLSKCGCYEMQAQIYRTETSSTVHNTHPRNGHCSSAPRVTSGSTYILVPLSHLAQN
Put plainly: Allosteric activation of human FSH receptor.

The subject of assay [9] is Influenza A virus. Put plainly: Antiviral activity against Influenza A virus H3N2. It is filed as functional, organism-based.
For assay [10], the system named is Influenza B virus. Put plainly: Antiviral activity against influenza B virus. It is filed as functional, organism-based.
Assay [11] has as its system Human alphaherpesvirus 1. Put plainly: Antiviral activity against Herpes simplex virus 1 KOS. The class given is functional, organism-based. The settings on record: Human alphaherpesvirus 1, KOS.
Assay [12] deals with Human alphaherpesvirus 2. Put plainly: Antiviral activity against Herpes simplex virus 2. The class given is functional, organism-based.
In assay [13] the target is Muscarinic acetylcholine receptor M1 (Rattus norvegicus, UniProt P08482). Put plainly: Displacement of [3H]QNB from M1 receptor in Wistar rat cerebral cortex homogenate. It is filed as tissue-based. On the technique in general: Displacement assays read how much labelled ligand stays bound in the presence of the test substance.
The target in assay [14] is T1, Follicle-stimulating hormone receptor. Put plainly: Agonist activity at human FSH receptor by cAMP-based assay. It is filed as functional.
Assay [15] has the same target. Briefly: Agonist activity at human FSH receptor by aromatase-based assay. The class given is functional.
The test system of assay [16] is Trypanosoma cruzi. Briefly: Growth inhibition of Trypanosoma cruzi at 100 ug/ml. The class given is functional. The settings on record: read-out: GI.
Assay [17] concerns Mycobacterium tuberculosis. Briefly: Antimycobacterial activity against Mycobacterium tuberculosis H37Rv by alamar blue susceptibility assay. The class given is functional.
Assay [18] deals with Human immunodeficiency virus 1. Put plainly: Antiviral activity against HIV1. The class given is functional, organism-based.
For assay [19], the system named is Ditylenchus myceliophagus. Briefly: Nematicidal activity against Ditylenchus myceliophagus after 2 days. It is filed as functional. The settings on record: 48 h, read-out: LD50 (the source's name).
For assay [20], the target named is T2, Human immunodeficiency virus type 1 integrase (Human immunodeficiency virus 1, UniProt Q7ZJM1). Put plainly: Inhibition of HIV1 integrase strand transfer activity.
Assay [21] concerns the target T2, Human immunodeficiency virus type 1 integrase. Put plainly: Inhibition of HIV1 integrase 3' processing activity.
Assay [22] concerns Bovine viral diarrhea virus 1. Put plainly: Antiviral activity against Bovine viral diarrhea virus. The class given is functional, organism-based. The settings on record: Bovine viral diarrhea virus isolates and strains.
Assay [23] addresses Tyrosine-protein phosphatase non-receptor type 1 (Homo sapiens, UniProt P18031). Put plainly: Inhibition of GST-tagged PTP1B using pNPP as substrate by spectrophotometric analysis.
Assay [24] has as its system Caenorhabditis elegans. Put plainly: Nematicidal activity against Caenorhabditis elegans after 2 days. The class given is functional. The settings on record: 48 h, read-out: LD50 (the source's name).
The target of assay [25] is Phosphotyrosine-protein phosphatase PTPB (Mycobacterium tuberculosis, UniProt P96830). Briefly: Inhibition of Mycobacterium tuberculosis protein tyrosine phosphatase B.
In assay [26] the test system is Mycobacterium tuberculosis. Put plainly: Growth inhibition of Mycobacterium tuberculosis H37Rv. The class given is functional.
In assay [27] the test system is Trypanosoma. Put plainly: Growth inhibition of epimastigote form of Trypanosoma at 100 ug/ml. It is filed as functional. The conditions noted are these: read-out: GI.

pEC50, pIC50, pKi: −log10 of the molar value. Values after ≈ are worked out from the molar mass of the structure shown.

Muscarinic acetylcholine receptor M1, sequence (P08482 whole entry): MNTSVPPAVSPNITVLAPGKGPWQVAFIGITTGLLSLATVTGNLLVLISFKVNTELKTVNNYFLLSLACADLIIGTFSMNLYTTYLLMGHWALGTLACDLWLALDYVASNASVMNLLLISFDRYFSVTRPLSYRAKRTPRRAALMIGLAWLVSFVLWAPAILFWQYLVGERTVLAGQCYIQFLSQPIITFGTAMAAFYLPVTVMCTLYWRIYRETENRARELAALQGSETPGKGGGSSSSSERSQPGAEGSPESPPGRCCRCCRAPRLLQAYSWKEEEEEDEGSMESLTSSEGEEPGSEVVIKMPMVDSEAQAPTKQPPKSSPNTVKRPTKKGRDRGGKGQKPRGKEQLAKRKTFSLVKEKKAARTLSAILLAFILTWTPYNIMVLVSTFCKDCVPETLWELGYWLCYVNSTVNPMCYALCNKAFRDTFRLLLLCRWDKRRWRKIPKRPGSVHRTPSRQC
T2 sequence (Q7ZJM1 whole entry): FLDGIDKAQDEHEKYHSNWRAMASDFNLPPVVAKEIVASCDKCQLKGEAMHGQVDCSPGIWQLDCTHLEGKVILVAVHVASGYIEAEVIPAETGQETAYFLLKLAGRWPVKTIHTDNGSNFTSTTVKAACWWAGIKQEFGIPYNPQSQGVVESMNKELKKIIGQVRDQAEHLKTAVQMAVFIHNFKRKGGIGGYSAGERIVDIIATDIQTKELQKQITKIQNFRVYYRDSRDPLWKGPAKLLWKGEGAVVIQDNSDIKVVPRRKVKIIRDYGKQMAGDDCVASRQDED
Phosphotyrosine-protein phosphatase PTPB, sequence (P96830 whole entry): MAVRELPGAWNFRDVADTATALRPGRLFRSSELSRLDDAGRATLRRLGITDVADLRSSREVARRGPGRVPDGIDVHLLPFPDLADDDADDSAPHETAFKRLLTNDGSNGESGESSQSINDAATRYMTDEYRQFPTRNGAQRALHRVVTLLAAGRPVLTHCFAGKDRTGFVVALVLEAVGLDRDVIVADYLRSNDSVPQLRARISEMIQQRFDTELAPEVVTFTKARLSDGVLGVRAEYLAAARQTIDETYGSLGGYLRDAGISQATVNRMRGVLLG
Tyrosine-protein phosphatase non-receptor type 1, sequence (P18031 whole entry): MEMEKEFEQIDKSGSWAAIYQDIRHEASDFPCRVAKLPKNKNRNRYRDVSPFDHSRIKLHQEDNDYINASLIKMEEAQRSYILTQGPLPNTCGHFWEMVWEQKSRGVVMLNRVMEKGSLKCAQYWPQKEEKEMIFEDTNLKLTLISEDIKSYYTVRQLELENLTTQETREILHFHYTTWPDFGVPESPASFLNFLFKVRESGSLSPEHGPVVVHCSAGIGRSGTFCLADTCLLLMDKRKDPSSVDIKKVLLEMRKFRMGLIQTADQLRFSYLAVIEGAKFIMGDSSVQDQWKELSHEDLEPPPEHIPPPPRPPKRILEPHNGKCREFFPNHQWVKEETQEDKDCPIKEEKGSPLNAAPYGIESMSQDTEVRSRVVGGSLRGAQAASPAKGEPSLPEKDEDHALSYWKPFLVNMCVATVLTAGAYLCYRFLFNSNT
C-C chemokine receptor type 4, sequence (P51679 whole entry): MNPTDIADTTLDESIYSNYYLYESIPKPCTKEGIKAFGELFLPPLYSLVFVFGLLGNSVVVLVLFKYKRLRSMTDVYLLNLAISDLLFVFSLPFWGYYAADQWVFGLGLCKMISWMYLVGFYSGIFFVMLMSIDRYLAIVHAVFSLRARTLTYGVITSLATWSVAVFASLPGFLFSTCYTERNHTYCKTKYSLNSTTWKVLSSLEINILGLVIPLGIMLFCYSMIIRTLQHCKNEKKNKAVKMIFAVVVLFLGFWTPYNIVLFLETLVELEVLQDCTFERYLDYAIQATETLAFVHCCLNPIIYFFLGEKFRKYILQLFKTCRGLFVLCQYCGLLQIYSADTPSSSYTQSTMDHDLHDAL

`C[C@H](NC(=O)C[C@H]1S[C@H](c2ccc(Cl)cc2Cl)N(CC(=O)NCCCN2CCCCC2)C1=O)c1cccc2ccccc12`: in [1], the pIC50 is 6.96.

Consider `COc1ccc(C(=O)Nc2ccc(C(=O)NN3C(=O)CSC3c3coc([N+](=O)[O-])c3)cc2)cc1` (centres undefined), for which, in [2], the inhibition of growth at 6.25 µg/mL came out at 90%.

`Cc1nc(N2C(=O)CSC2c2ccccc2Cl)nc(C)c1C` (centres undefined) had a pIC50 in assay [3] of 5.53.

On to `Cc1c(N2C(=O)CSC2c2cc(I)cc(I)c2O)c(=O)n(-c2ccccc2)n1C` (centres undefined), for which the results for the “inhibition zone (IZ)” value in [4], in assay [5] and in assay [6] were 27 mm, 25 mm and 24 mm, respectively.

As for `Cc1ccc(-c2cc(C(F)(F)F)nn2-c2ccc(S(N)(=O)=O)cc2)cc1` [CELECOXIB], in assay [7], the “inhibition (INH)” value amounted to 45%.

Take `COc1ccc(CCNC(=O)C[C@H]2S[C@@H](c3ccc(C#Cc4ccccc4)cc3)N(c3ccc(C(N)=O)c(Cl)c3)C2=O)cc1OC`: the pEC50 in [8] is 9.00.

For `Cc1cc(C)nc(N2C(=O)CSC2c2c(C)cccc2C)c1` (centres undefined), the pEC50 is 3.60 in assay [9], 3.58 in assay [10], 3.89 in assay [11] and 3.79 in assay [12].

As to `Cc1ccc(C2SCC(=O)N2C2=CCCN(C)C2)cc1` (centres undefined), in assay [13], the pIC50 was 3.84 and the pKi was 4.59.

For `O=C(N/N=C1/SCC(=O)N1c1ccccc1)c1cc(-c2cc3ccccc3o2)n(-c2ccccc2)n1`, the “inhibition zone (IZ)” value in assay [6] was 40 mm.

On to `CCOc1cc(CCNC(=O)C[C@H]2S[C@@H](c3ccc(C#Cc4ccccc4)cc3)NC2=O)ccc1OC`, for which the values for the pEC50 in assay [14] and in assay [15] were 7.10 and 7.30, respectively.

Turning to `CNC(=O)CC1S/C(=N\N=C(/C)c2cccc(Br)c2)N(C)C1=O` (centres undefined), in [16], the inhibition of growth at 100 µg/mL stood at 60%.

Take `COc1cc(C2SCC(=O)N2NC(=O)c2ccncc2)ccc1O` (centres undefined): the MIC in assay [17] amounted to 0.31 µg/mL (≈ 0.898 µM).

`CC1C(N2C(=O)CSC2c2cc(I)cc(I)c2O)C(=O)N(c2ccccc2)N1C` (centres undefined): the figures for the “inhibition zone (IZ)” value in assay [4], in assay [5] and in assay [6] were 27 mm, 25 mm and 24 mm, respectively.

`Cc1cccc(N2C(=O)CSC2c2ccccn2)n1` (centres undefined) showed a pEC50 in assay [18] of 8.11.

Consider `COc1ccc(Cc2cccc(C3SC(CC(=O)O)C(=O)N3c3cccc(O)c3)c2)cc1C1SC(CC(=O)O)C(=O)N1c1cccc(O)c1` (centres undefined), for which, in assay [19], the LC50 was determined as 210 µg/mL (≈ 300 µM).

As to `O=C(Nc1ccc(O)cc1)C(=S)NN1C(=O)/C(=C\c2cc(I)cc(I)c2O)SC1=S`, the pIC50 is 5.52 in assay [20] and 5.15 in [21].

On to `CC1S/C(=N/N=C2\C(=O)Nc3ccc([N+](=O)[O-])cc32)N(c2ccc(Br)cc2)C1=O` (centres undefined), for which the EC50 in assay [22] was 13 µg/mL (≈ 27.4 µM).

With `COc1ccc(C(=O)Nc2ccc(C(=O)NN3C(=O)CSC3c3ccc(F)cc3)cc2)cc1` (centres undefined), the inhibition of growth at 6.25 µg/mL in assay [2] came out at 98%.

Compound `O=C(O)CN1C(=O)/C(=C/c2ccc(-c3ccc(OCc4ccccc4)cc3)cc2)SC1=S` showed a pIC50 in assay [23] of 6.32.

Turning to `COc1ccc(Cc2cccc(C3SCC(=O)N3c3cccc(O)c3)c2)cc1C1SCC(=O)N1c1cccc(O)c1` (centres undefined), the LC50 in [24] stood at 240 µg/mL (≈ 410 µM).

In [25], `O=C1CS(=O)(=O)C2(C(=O)N(Cc3ccc(Br)cc3)c3ccc([N+](=O)[O-])cc32)N1c1ccc(F)c(F)c1` (centres undefined) had a pIC50 of 5.96.

In assay [26], `O=c1oc2ccccc2cc1-c1cs/c(=N\N=C\c2ccc(Cl)c(Cl)c2)n1C1CCCCC1` came in with an Imax of 42%.

In the case of `O=C1CSC(c2cccc3ccccc23)N1c1ccc(Br)cc1` (centres undefined), the inhibition of growth at 100 µg/mL in [27] stood at 91.4%.

Turning to `NS(=O)(=O)c1ccc(N2C(=O)CSC2c2ccccc2)cc1` (centres undefined), the “inhibition (INH)” value in assay [7] came to 78%.

(Values after ChEMBL document CHEMBL2216749, “Recent developments and biological activities of thiazolidinone derivatives: a review” (Bioorg Med Chem, 2012).)
